Data as given in patent US9657009B2, “Heteroaryl substituted pyridyl compounds useful as kinase modulators” (BRISTOL-MYERS SQUIBB COMPANY, priority 2012, dated 2017).
Where two headings read alike, the source gives them in different places.

How the values were obtained:
[1] = system: TLR2 induced IL-6 in peripheral blood mononuclear cells (PBMCs); experiment: PBMC TLR2 Induced IL-6 Assay; format: cell-based; conditions: lipoteichoic acid 10 μg/ml, IL-6 by ELISA; for IC50: values without asterisk, read-out: Cell IC50
Procedure: PBMC TLR2 Induced IL-6 Assay Peripheral blood mononuclear cells (PBMCs) were isolated from human blood containing the anti-coagulant EDTA (2.5 mM) by centrifugation over a FICOLL® gradient. […] At the end of the culture, plates were centrifuged at 1800 rpm for 10 minutes to pellet the cells. Supernatants were harvested and analyzed for IL-6 levels by ELISA (BD Biosciences, San Jose, Calif.).

IRAK4 = IRAK4 (Homo sapiens (Human), UniProt Q9NWZ3); experiment: IRAK4 Inhibition Assay; format: biochemical
Procedure: IRAK4 Inhibition Assay The assays were performed in U-bottom 384-well plates. […] The reaction was initiated by the combination of IRAK4 with substrates and test compounds. The reaction mixture was incubated at room temperature for 60 min. and terminated by adding 45 μL of 35 mM EDTA to each sample.

[2] = human PBMCs, 5 hours, values marked * are EC50, read-out: Cell EC50 (*EC50)
[3] = ATP 500 μM; IRAK4 0.6 nM; 60 min at room temperature; read-out: IRAK4 IC50

IRAK4, sequence (Q9NWZ3 whole entry, species assumed): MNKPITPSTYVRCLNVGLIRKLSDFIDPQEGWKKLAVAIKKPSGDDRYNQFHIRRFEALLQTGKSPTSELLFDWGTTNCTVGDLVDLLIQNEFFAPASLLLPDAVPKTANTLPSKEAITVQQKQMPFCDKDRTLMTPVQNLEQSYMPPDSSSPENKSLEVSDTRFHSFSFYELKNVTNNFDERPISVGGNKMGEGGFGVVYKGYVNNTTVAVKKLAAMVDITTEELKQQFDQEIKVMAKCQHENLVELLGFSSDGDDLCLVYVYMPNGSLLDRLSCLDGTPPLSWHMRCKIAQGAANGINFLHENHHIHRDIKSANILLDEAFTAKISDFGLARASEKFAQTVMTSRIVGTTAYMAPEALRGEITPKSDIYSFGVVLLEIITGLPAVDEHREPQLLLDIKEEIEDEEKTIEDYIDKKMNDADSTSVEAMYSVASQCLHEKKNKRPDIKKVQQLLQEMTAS

Row | IC50 (IRAK4; [3]) | SMILES | EC50 [1, 2] | further results
1 | 2.3 nM | CC(C)(O)[C@H](F)CNC(=O)c1cnc(Nc2ncc(C#N)cc2Cl)cc1NC1CCC(F)C1 (stereo partly drawn) [Example 158] | 102 nM | –
2 | 3.2 nM | CC(C)(O)[C@H](F)CNC(=O)c1cnc(Nc2ncc(C#N)cc2Cl)cc1NC1CCCC1F (stereo partly drawn) [Example 70] | 91 nM | –
3 | 2 nM | CC(C)(O)[C@H](F)CNC(=O)c1cnc(Nc2ncc(C#N)cc2Cl)cc1NC1CCC(F)C1 (stereo partly drawn) [Example 157] | – | EC50 ([1]; Homo sapiens, PBMC, 5 h, values marked * are EC50, read-out: Cell EC50 (*EC50)): 71 nM
4 | 1.5 nM | CC(C)(O)[C@H](F)CNC(=O)c1cnc(Nc2ncc(C#N)cc2Cl)cc1NC1CCCC1F (stereo partly drawn) [Example 73] | 132 nM | –
5 | 3.7 nM | CC(C)(O)[C@H](F)CNC(=O)c1cnc(Nc2ncc(C#N)cc2Cl)cc1NC1CCCC1O (stereo partly drawn) [Example 78] | 64 nM | –
6 | 5.9 nM | CC(C)(O)[C@H](F)CNC(=O)c1cnc(Nc2ncc(C#N)cn2)cc1N[C@H]1CCC[C@@H]1F [Example 54] | – | IC50 ([1]; human PBMCs, 5 hours): 126 nM
7 | 3.5 nM | CC(C)(O)[C@H](F)CNC(=O)c1cnc(Nc2ncc(C#N)cn2)cc1NC1CCC(F)C1 (stereo partly drawn) [Example 87] | 197 nM | –
8 | 15.7 nM | CC(C)(O)[C@H](F)CNC(=O)c1cnc(Nc2ncc(F)cc2F)cc1NC1CCCOC1 (stereo partly drawn) [Example 110] | 705 nM | –
9 | 13.7 nM | CC(C)(O)[C@H](F)CNC(=O)c1cnc(Nc2ncc(F)cc2F)cc1NC1CCCOC1 (stereo partly drawn) [Example 109] | 350 nM | –
10 | 5.4 nM | CC(C)(O)[C@H](F)CNC(=O)c1cnc(Nc2ncc(C#N)cn2)cc1NC1CCC(F)C1 (stereo partly drawn) [Example 88] | 266 nM | –
11 | 3 nM | CC(C)(O)[C@H](F)CNC(=O)c1cnc(Nc2ncc(C#N)cc2F)cc1NC1CCC(F)C1 (stereo partly drawn) [Example 82] | 105 nM | –
12 | 2.8 nM | CC(C)(O)[C@H](F)CNC(=O)c1cnc(Nc2ncc(C#N)cc2Cl)cc1NC1CCCC1F (stereo partly drawn) [Example 71] | 394 nM | –
13 | 1.8 nM | CC(C)(O)[C@H](F)CNC(=O)c1cnc(Nc2ncc(C#N)cc2Cl)cc1NC1CCC(F)C1 (stereo partly drawn) [Example 57] | 68 nM | –
14 | 2.7 nM | CC(C)(O)[C@H](F)CNC(=O)c1cnc(Nc2ncc(C#N)cc2Cl)cc1NC1CCCC1F (stereo partly drawn) [Example 74] | 84 nM | –
15 | 7.4 nM | CNC(=O)[C@H]1CC[C@H](NC(=O)c2cnc(Nc3ncc(C#N)cc3F)cc2NC2CC2)CC1 [Example 59] | – | –
16 | – | CC(C)Nc1cc(Nc2ncc(C#N)cc2F)ncc1C(=O)NC1CCC(C(C)(O)C2CC2)CC1 (stereo not drawn) [Example 145] | 275 nM | IC50 (IRAK4; read-out: IRAK4 IC50; ATP 500 μM; IRAK4 0.6 nM; 60 min at room temperature): 4.3 nM
17 | 9.4 nM | C[C@@H](CO)Nc1cc(Nc2ncc(C#N)cc2Cl)ncc1C(=O)NC[C@@H](F)C(C)(C)O [Example 50] | – | –
18 | 2 nM | CC(C)Nc1cc(Nc2ccc(C#N)cn2)ncc1C(=O)NC[C@@H](F)C(C)(C)O [Example 2, 6-((5-cyano-2-pyridinyl)amino)-N-((2R)-2-fluoro-3-hydroxy-3-methylbutyl)-4-(isopropylamino)nicotinamide] | – | –
19 | 3.4 nM | Cn1nnnc1-c1ccc(Nc2cc(Nc3ncc(C#N)cc3Cl)ncc2C(=O)NC[C@@H](F)C(C)(C)O)cc1 [Example 148] | – | –
20 | 9.9 nM | CC(C)CCNc1cc(Nc2ncc(C#N)cc2F)ncc1C(=O)NC[C@@H](F)C(C)(C)O [Example 141] | – | –
21 | 11.1 nM | CC(=O)N[C@H]1CC[C@H](NC(=O)c2cnc(Nc3ccc(C#N)cn3)cc2NC2CCOCC2F)CC1 (stereo partly drawn) [Example 11, N-((1R,4R)-4-acetamidocyclohexyl)-6-((5-cyanopyridin-2-yl)amino)-4-(((3S,4R)-3-fluorotetrahydro-2H-pyran-4-yl)amino)nicotinamide] | – | –
22 | 10.7 nM | CC(C)(O)C(F)(F)CNC(=O)c1cnc(Nc2ncc(C#N)cc2Cl)cc1NC1CC1 [Example 43, 6-((3-chloro-5-cyanopyridin-2-yl)amino)-4-(cyclopropylamino)-N-(2,2-difluoro-3-hydroxy-3-methylbutyl)nicotinamide] | – | –

Row | IC50 (IRAK4; [3]) | SMILES | EC50 [1, 2] | further results
23 | 1.7 nM | CC(C)(O)[C@H](F)CNC(=O)c1cnc(Nc2ncc(C#N)cc2Cl)cc1NC1CCC(F)C1 (stereo partly drawn) [Example 62] | 52 nM | –
24 | 7.5 nM | CC(C)Nc1cc(Nc2ccc(=O)[nH]n2)ncc1C(=O)NC[C@@H](F)C(C)(C)O [Example 45] | – | –
25 | 4.3 nM | CC(C)CNc1cc(Nc2ncc(C#N)cc2Cl)ncc1C(=O)NC[C@@H](F)C(C)(C)O [Example 155] | – | –
26 | 4.8 nM | CC(C)(O)[C@H](F)CNC(=O)c1cnc(Nc2ncc(C#N)cn2)cc1NC1CCC(F)C1 (stereo partly drawn) [Example 86] | – | –
27 | 7.3 nM | CC(=O)N[C@H]1CC[C@H](NC(=O)c2cnc(Nc3ncc(C#N)cc3F)cc2NC2CC2)CC1 [Example 83] | – | –
28 | 8.6 nM | CC(C)Nc1cc(Nc2ncc(C#N)cc2Cl)ncc1C(=O)NC[C@H](F)C(C)(C)O [Example 156] | – | –
29 | 2.9 nM | CC(C)(O)[C@H](F)CNC(=O)c1cnc(Nc2ncc(C#N)cc2F)cc1NCC(F)(F)C(C)(C)O [Example 126] | – | –
30 | 5.7 nM | CC(C)(O)[C@H](F)CNC(=O)c1cnc(Nc2ncc(Cl)cc2F)cc1NC1CC1 [Example 124] | – | –
31 | 4.1 nM | CC(C)Nc1cc(Nc2ncc(C#N)cc2F)ncc1C(=O)N[C@H]1CC[C@H](C(C)(C)O)CC1 [Example 137] | – | –
32 | 1.2 nM | CC(C)NC(=O)N[C@H](C)CCNC(=O)c1cnc(Nc2ncc(C#N)cc2F)cc1NC(C)C [Example 29, (R)-6-((5-cyano-3-fluoropyridin-2-yl)amino)-4-(isopropylamino)-N-(3-(3-isopropylureido)butyl)nicotinamide] | – | –
33 | 17 nM | Cc1cnc(Nc2cc(NC(C)C)c(C(=O)NC[C@@H](F)C(C)(C)O)cn2)nc1 [Example 113] | – | –
34 | – | CC(F)[C@@H](C)Nc1cc(Nc2ncc(C#N)cc2Cl)ncc1C(=O)NC[C@@H](F)C(C)(C)O (stereo partly drawn) [Example 160] | 846 nM | –
35 | 2.6 nM | CC(C)(O)[C@H](F)CNC(=O)c1cnc(Nc2ncc(C#N)cc2Cl)cc1Nc1cccc(C#N)c1 [Example 162] | – | –
36 | 15.9 nM | Cc1cnc(Nc2cc(NC(C)C)c(C(=O)NC[C@@H](F)C(C)(C)O)cn2)c(F)c1 [Example 129] | – | –
37 | 5 nM | CC(C)(O)[C@H](F)CNC(=O)c1cnc(Nc2ncc(C#N)cn2)cc1N[C@H]1CCC[C@@H]1F [Example 55] | – | IC50 ([1]; human PBMCs, 5 hours): 27 nM
38 | 10 nM | CC(C)Nc1cc(Nc2ncc(C#N)cc2F)ncc1C(=O)N[C@H]1CC[C@H](S(C)(=O)=O)CC1 [Example 33, 6-((5-cyano-3-fluoropyridin-2-yl)amino)-4-(isopropylamino)-N-((1R,4R)-4-(methylsulfonyl)cyclohexyl)nicotinamide] | – | –
39 | 12.7 nM | CC(C)Nc1cc(Nc2ncc(C#N)cc2Cl)ncc1C(=O)N[C@H]1CC[C@H](O)CC1 [Example 92] | – | –
40 | 4 nM | COc1cccc(Nc2cc(Nc3ncc(C#N)cc3F)ncc2C(=O)NC[C@@H](F)C(C)(C)O)c1 [Example 130] | – | –
41 | 4.5 nM | CC(C)(O)[C@H](F)CNC(=O)c1cnc(Nc2ncc(C#N)cc2F)cc1NC1CCC(F)C1 (stereo partly drawn) [Example 115] | 65 nM | –
42 | – | CC(F)[C@@H](C)Nc1cc(Nc2ncc(C#N)cc2Cl)ncc1C(=O)NC[C@@H](F)C(C)(C)O (stereo partly drawn) [Example 159] | 130 nM | –
43 | 5 nM | CC(C)(O)[C@H](F)CNC(=O)c1cnc(Nc2ncc(C#N)cn2)cc1NC1CCC(F)C1 (stereo partly drawn) [Example 56] | – | –
44 | 3.5 nM | CC(C)Nc1cc(Nc2ncc(Cl)cc2F)ncc1C(=O)NC[C@@H](F)C(C)(C)O [Example 123] | – | –

Row | SMILES | IC50 (IRAK4; [3]) | EC50 [1, 2] | further results
45 | CC(C)(O)[C@H](F)CNC(=O)c1cnc(Nc2ncc(C#N)cc2F)cc1NC1COC1 [Example 164] | 8 nM | – | –
